Values quoted from earlier work, collected in patent US10369157B1 (priority 2018, dated 2019).

Key:
[1] = tested on: adrenergic alpha-2 receptors
rats = conditions: rat, in vivo

## Clc1cccc(Cl)c1NC1=NCCN1 [Clonidine, N-(2,6-dichlorophenyl)-4,5-dihydro-1H-imidazol-2-amine]
patients; most patients
  Effect on pulse rate in treated patients: decrease in pulse rate
In vivo
  Absorption by the human body: well absorbed

## Cc1cccc([C@H](C)c2cnc[nH]2)c1C [Dexmedotomidine, 5-[(1S)-1-(2,3-dimethylphenyl)ethyl]-1H-imidazole]
[1]
  Affinity towards adrenergic alpha-2 receptors compared with Clonidine: increased affinity

## CNC1(c2ccccc2Cl)CCCCC1=O (centres unmarked) [Ketamine, 2-(2-chlorophenyl)-2-(methylamino)cyclohexan-1-one]
patients; human, in vivo
  Clinical effects observed on patients following administration: increased blood pressure, increased muscle tone (may resemble catatonia), opening of the eyes (usually accompanied by nystagmus), and increased myocardial oxygen consumption
Studies in humans
  Dose recovered through excreted feces: approximately 3%
  Dose recovered through urine: approximately 91%

## Cc1ncc2n1-c1ccc(Cl)cc1C(c1ccccc1F)=NC2 [Midazolam, 8-chloro-6-(2-fluorophenyl)-1-methyl-4H-imidazo[1,5-a][1,4]benzodiazepine]
humans
  Passage through the placenta into fetal circulation: slowly pass through the placenta
  Presence in human milk: small amounts

## OCc1ncc2n1-c1ccc(Cl)cc1C(c1ccccc1F)=NC2 [alpha-hydroxymidazolam]
patients; intravenous administration
  Contribution to the effects of the sleep inducing agent: approximately 10%
metabolite
  Elimination half-life: < 1 h
Metabolite of the sleep inducing agent
  Plasma concentrations relative to the parent compound: approximately 12%

## CN1CC[C@]23c4c5ccc(O)c4O[C@H]2[C@@H](O)C=C[C@H]3[C@H]1C5 [morphine]
rats
  Minimum ratio of DL50 to DE50: 69.5

## Oc1cc(Cl)c(NC2=NCCN2)c(Cl)c1 [p-hydroxyclonidine]
patients; human, in vivo
  Pharmacological activity of the major metabolite: pharmacologically inactive

## CCOC(=O)C1(c2ccccc2)CCN(C)CC1 [pethidine]
rats
  Minimum ratio of DL50 to DE50: 4.6
